Assay results published in PubChem BioAssay AID608 (Sanford-Burnham Center for Chemical Genomics, 2007).
The source made the active and inactive calls. The rule behind the calls is not given here.

These compounds were tested against Peptidyl-prolyl cis-trans isomerase FKBP1A (Homo sapiens) (UniProt P62942) (assay: FKBP12 binders, biophysical, NMR detection (AID 608)). Conditions: NMR binding, purified FKBP12.
Peptidyl-prolyl cis-trans isomerase FKBP1A (Homo sapiens), sequence (P62942 whole entry, looked up): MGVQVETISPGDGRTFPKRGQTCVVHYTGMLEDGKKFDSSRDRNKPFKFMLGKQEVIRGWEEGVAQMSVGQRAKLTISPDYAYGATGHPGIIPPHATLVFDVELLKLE
With `COc1ccc(-c2cc(=O)c3c(O)c(OC)c(O[C@H]4O[C@H](CO[C@@H]5O[C@@H](C)[C@H](O)[C@@H](O)[C@H]5O)[C@@H](O)[C@H](O)[C@H]4O)cc3o2)cc1` the Kd was > 4 mM (inactive).
`CC(=O)Nc1ccc(NC(=O)/C=C\C(=O)O)cc1` was tested, and the Kd was > 4 mM (inactive).
In the case of `CC(=O)c1ccc(NS(=O)(=O)c2cccc(C)c2)cc1`, the Kd is reported as > 4 mM (inactive).
In the case of `C/C=C/c1ccc2c(c1)OCO2`, the Kd is reported as > 4 mM (inactive).
With `C=CCc1cc(C(=O)N2CCCCC2)ccc1O` the Kd was > 4 mM (inactive).
For `O=C(NCC1CCCCC1)c1ccco1`, the Kd was > 4 mM (inactive).
In the case of `CC1SC(=NC(=O)c2ccncc2)NC1=O` (centres undefined), the Kd is reported as > 4 mM (inactive).
In the case of `CCCc1ncc(C(O)c2cccc3ccccc23)n1C` (centres undefined), the Kd is reported as > 4 mM (inactive).
In the case of `Cc1nnc(SCC(=O)Nc2ccccc2)[nH]c1=O`, the Kd is reported as > 4 mM (inactive).
For `O=C(NC1CC1)c1ccccc1[N+](=O)[O-]`, the Kd was > 4 mM (inactive).
In the case of `Cc1nc(-c2cc(CO)no2)cs1`, the Kd is reported as > 4 mM (inactive).
For `CCC(C)OC1CCS(=O)(=O)C1` (centres undefined), the Kd was > 4 mM (inactive).
In the case of `COc1ccccc1-c1n[nH]c(=O)o1`, the Kd is reported as > 4 mM (inactive).
For `O=S1(=O)CCC(N2CCCCC2)C1` (centres undefined), the Kd was > 4 mM (inactive).
For `Cc1ccccc1OCC(=O)O`, the Kd was > 4 mM (inactive).
`O=C(Nn1cnnc1)c1csc2c1CCCC2` was tested, and the Kd was > 4 mM (inactive).
In the case of `Nc1ccc2c(c1)COc1ccccc1O2`, the Kd is reported as > 4 mM (inactive).
With `CC[C@@]1(O)C[C@H](O[C@H]2C[C@H](N(C)C)[C@H](O)[C@H](C)O2)c2c(cc3c(c2O)C(=O)c2c(O)cccc2C3=O)[C@H]1C(=O)OC` the Kd was > 4 mM (inactive).
With `OCc1ncoc1-c1ccccc1` the Kd was > 4 mM (inactive).
In the case of `Cc1ccc(NS(=O)(=O)N2CCOCC2)c(C)c1`, the Kd is reported as > 4 mM (inactive).
With `CCn1cnc2cc(NCc3ccncc3)ccc21` the Kd was > 4 mM (inactive).
In the case of `O=C(CC1NC(=O)NC1=O)Nc1ccccc1` (centres undefined), the Kd is reported as > 4 mM (inactive).
`CCn1cnc(C(=O)NC)c1C(=O)NC` was tested, and the Kd was > 4 mM (inactive).
In the case of `O=C(O)c1ccc2occc2c1`, the Kd is reported as > 4 mM (inactive).
For `c1ccc(NCc2nc(-c3ccccc3)no2)cc1`, the Kd was > 4 mM (inactive).
With `CC(=O)c1cccc(NC(=O)C=C(C)C)c1` the Kd was > 4 mM (inactive).
In the case of `Cc1occc1C(=O)Nc1nnc(C(F)(F)F)s1`, the Kd is reported as > 4 mM (inactive).
In the case of `O=S(=O)(Nc1cccnc1Cl)c1ccccc1`, the Kd is reported as > 4 mM (inactive).
For `O=C(NCc1n[nH]c(=O)c2ccccc12)C1CC1`, the Kd was > 4 mM (inactive).
In the case of `Cc1nn(C)c(C)c1NC(=S)NC1CCCC1`, the Kd is reported as > 4 mM (inactive).
`Cc1cc(C)n2nc(Cc3ccccc3)nc2n1` was tested, and the Kd was > 4 mM (inactive).
For `NC(=O)c1ccsc1NC(=O)c1ccccc1[N+](=O)[O-]`, the Kd was > 4 mM (inactive).
In the case of `Cc1nnc(Nc2cccnc2)[nH]c1=O`, the Kd is reported as > 4 mM (inactive).
With `OC1CSc2ncnn2C1` (centres undefined) the Kd was > 4 mM (inactive).
For `S=c1ccc(N2CCCCC2)n[nH]1`, the Kd was > 4 mM (inactive).
In the case of `O=C(CC1Nc2ccccc2NC1=O)Nc1ccc(O)cc1` (centres undefined), the Kd is reported as > 4 mM (inactive).
For `Cn1c(O)c(C=NCC2CCNCC2)c(=O)n(C)c1=O`, the Kd was > 4 mM (inactive).
In the case of `NC(=O)CSCc1ccc(Br)cc1`, the Kd is reported as > 4 mM (inactive).
For `CC(C)=CCc1c(O)cc(C)oc1=O`, the Kd was > 4 mM (inactive).
`CC1=C(/C=C/C(C)=C/C=C/C(C)=C/CO)C(C)(C)CCC1` was tested, and the Kd was > 4 mM (inactive).
`C/C=C(/C)C(=O)O[C@@H]1Cc2c(ccc3ccc(=O)oc23)OC1(C)C` was tested, and the Kd was > 4 mM (inactive).
With `CC(=O)O[C@H]1C[C@@H](OC(C)=O)C(C)(C)C2C[C@@H](OC(C)=O)[C@]3(C)C([C@H](OC(C)=O)C[C@@]4(C)[C@H](c5ccoc5)OC(=O)[C@H]5O[C@]543)[C@]21C` (some centres undefined) the Kd was > 4 mM (inactive).
With `CC(=O)c1ccc[nH]1` the Kd was > 4 mM (inactive).
For `COc1ccc2c3c1O[C@H]1C[C@@H](O)C=C[C@@]31CCN(C)C2`, the Kd was > 4 mM (inactive).
`Cn1nc(-c2cccs2)cc1N` was tested, and the Kd was > 4 mM (inactive).
`O=C1CCNc2ccccc2N1` was tested, and the Kd was > 4 mM (inactive).
`Cc1cc(C(=O)N2CCN(c3ncccn3)CC2)c(C)o1` was tested, and the Kd was > 4 mM (inactive).
In the case of `Cc1ccccc1-n1c(-c2cccnc2)n[nH]c1=S`, the Kd is reported as > 4 mM (inactive).
`Cc1cc(C)cc(C(=O)n2cnnc2N)c1` was tested, and the Kd was > 4 mM (inactive).
For `Cc1cc(OCC(=O)N2CCOCC2)ccc1C(C)C`, the Kd was “inactive”.
In the case of `Cc1noc(C)c1C(=O)Nc1cccnc1`, the Kd is reported as > 4 mM (inactive).
`NCCNC(=S)Nc1ccccc1` was tested, and the Kd was > 4 mM (inactive).
In the case of `CN1CCC(N(C)C2CCN(C)CC2)CC1`, the Kd is reported as > 4 mM (inactive).
`NCc1ccc(-c2ccccn2)s1` was tested, and the Kd was > 4 mM (inactive).
In the case of `Cc1ccccc1NC(=S)NCCO`, the Kd is reported as > 4 mM (inactive).
`OCc1ccc(OC(F)(F)F)cc1` was tested, and the Kd was > 4 mM (inactive).
With `CC1CCN(C(=O)c2ccc3c(c2)OCCO3)CC1` the Kd was > 4 mM (inactive).
For `O=C(O)c1ccc(NCc2cccnc2)cc1`, the Kd was > 4 mM (inactive).
For `Cc1ccc(C(=O)N2CCC(C(N)=O)CC2)c(Cl)c1`, the Kd was > 4 mM (inactive).
For `OCc1ccc(CN2CCOCC2)cc1`, the Kd was > 4 mM (inactive).
With `Nc1cc(N)nc(SCc2cccnc2)n1` the Kd was > 4 mM (inactive).
`O=C(CSc1cccc2cccnc12)N1CCCC1` was tested, and the Kd was > 4 mM (inactive).
With `c1ccc(-c2nnc3sc(-c4ccncc4)nn23)cc1` the Kd was > 4 mM (inactive).
For `CC(=O)O[C@@H]1CC2C(C)(C)CCC(=O)[C@]2(C)C2CC[C@@]3(C)[C@H](c4ccoc4)OC(=O)C4OC43[C@@]21C` (some centres undefined), the Kd was > 4 mM (inactive).
For `CCC(=O)NC(=S)Nc1ccc(N2CCOCC2)cc1`, the Kd was > 4 mM (inactive).
For `Cc1nnc(Nc2ccc(S(N)(=O)=O)cc2)[nH]c1=O`, the Kd was > 4 mM (inactive).
With `O=C(NN1C(=O)CSC1=S)c1ccccc1` the Kd was > 4 mM (inactive).
For `CCOc1ccc(NS(=O)(=O)N2CCOCC2)cc1`, the Kd was > 4 mM (inactive).
For `COC(=O)[C@@H]1OC(=O)[C@H]2O[C@@]23[C@@]1(C)CCC1[C@@]2(C)CCC(=O)C(C)(C)C2C[C@@H](OC(C)=O)[C@]13C` (some centres undefined), the Kd was > 4 mM (inactive).
`COc1cc2c(cc1O)[C@@H](Cc1ccc(O)cc1)[N+](C)(C)CC2` was tested, and the Kd was > 4 mM (inactive).
With `Cc1onc(-c2ccccc2)c1C(=O)Nc1ccncc1` the Kd was > 4 mM (inactive).
With `CCOC(=O)c1c(-c2ccncc2)csc1N` the Kd was > 4 mM (inactive).
`COC(=O)C1COCCN1C(=O)CSc1ccc(C(C)C)cc1` (centres undefined) was tested, and the Kd was 0.0003 mM.
For `Cc1nc(CC(=O)O)c(-c2ccccc2)s1`, the Kd was > 4 mM (inactive).
With `COc1ccc(-c2nc(C)sc2CC(=O)O)cc1` the Kd was > 4 mM (inactive).
`CC(=O)O[C@@H]1c2c(ccc3ccc(=O)oc23)OC(C)(C)[C@@H]1OC(=O)CC(C)C` was tested, and the Kd was > 4 mM (inactive).
`OCc1csc(-c2cccs2)n1` was tested, and the Kd was > 4 mM (inactive).
`NC(=O)CN=Cc1c(O)[nH]c2ccccc12` was tested, and the Kd was > 4 mM (inactive).
In the case of `Clc1ccccc1OCc1nc(-c2ccccn2)no1`, the Kd is reported as > 4 mM (inactive).
For `CC(=O)Nc1ccc(NC(=O)N2CCOCC2)cc1`, the Kd was > 4 mM (inactive).
With `Cc1nn(C)c2sc(C(=O)O)cc12` the Kd was > 4 mM (inactive).
For `CCOC(=O)CC1NCCNC1=O` (centres undefined), the Kd was > 4 mM (inactive).
In the case of `O=C(Nc1c[nH]c(=O)[nH]c1=O)c1cccs1`, the Kd is reported as > 4 mM (inactive).
`CCCCCCCCCCCCCCC(C(=O)OC)C(O)(CC(=O)OC)C(=O)OC` (centres undefined) was tested, and the Kd was > 4 mM (inactive).
